Experimental findings from US20200239530A1, “COMPOUNDS AND METHODS OF MODULATING PROTEIN DEGRADATION” (Vividion Therapeutics, Inc., priority 2017, published 2020) are described below.

The structures appear in SMILES notation.

The target in assay [1] is T1, TRIM33 E3 ubiquitin-protein ligase TRIM33 (Homo sapiens, UniProt Q9UPN9).
T1 construct: Cells were resuspended in cold PBS on ice and sonicated with a probe sonicator to achieve lysis; endogenous in cells
T1 sequence (Q9UPN9 1-1127): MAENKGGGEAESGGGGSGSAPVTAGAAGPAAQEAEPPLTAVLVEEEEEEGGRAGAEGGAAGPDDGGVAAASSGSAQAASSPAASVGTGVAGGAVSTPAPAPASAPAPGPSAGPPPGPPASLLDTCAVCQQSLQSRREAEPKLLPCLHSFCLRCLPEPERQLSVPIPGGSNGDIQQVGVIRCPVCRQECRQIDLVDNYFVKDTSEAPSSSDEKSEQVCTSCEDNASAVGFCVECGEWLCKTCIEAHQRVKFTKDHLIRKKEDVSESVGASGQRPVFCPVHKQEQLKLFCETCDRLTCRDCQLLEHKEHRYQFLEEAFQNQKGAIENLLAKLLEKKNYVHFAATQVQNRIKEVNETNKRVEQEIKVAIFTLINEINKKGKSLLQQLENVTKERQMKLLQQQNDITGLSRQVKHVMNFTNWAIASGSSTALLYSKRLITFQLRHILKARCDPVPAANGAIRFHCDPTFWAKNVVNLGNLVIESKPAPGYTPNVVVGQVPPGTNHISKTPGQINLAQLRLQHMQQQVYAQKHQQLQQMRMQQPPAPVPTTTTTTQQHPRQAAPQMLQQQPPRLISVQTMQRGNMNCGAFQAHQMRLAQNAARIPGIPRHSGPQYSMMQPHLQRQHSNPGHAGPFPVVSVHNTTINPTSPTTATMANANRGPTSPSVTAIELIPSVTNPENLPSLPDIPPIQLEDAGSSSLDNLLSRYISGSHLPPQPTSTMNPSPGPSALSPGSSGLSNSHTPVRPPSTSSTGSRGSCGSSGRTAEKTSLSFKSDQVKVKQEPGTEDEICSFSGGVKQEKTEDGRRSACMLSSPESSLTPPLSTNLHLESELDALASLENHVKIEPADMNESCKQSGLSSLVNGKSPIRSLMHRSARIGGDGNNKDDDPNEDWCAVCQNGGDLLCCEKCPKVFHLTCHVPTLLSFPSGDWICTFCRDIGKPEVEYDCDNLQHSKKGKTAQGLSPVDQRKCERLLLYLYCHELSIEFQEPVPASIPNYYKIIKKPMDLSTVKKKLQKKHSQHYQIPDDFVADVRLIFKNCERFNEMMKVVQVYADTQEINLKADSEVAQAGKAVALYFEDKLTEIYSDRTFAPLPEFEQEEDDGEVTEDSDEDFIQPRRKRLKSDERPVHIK
Kind of assay: Cysteine liganding, probe competition. It is filed as binding. The procedure, abridged:
(§1)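 Probe competition in native proteome: 5 mg/ml lysate, compound 1 hr 25° C, then desthiobiotin iodoacetamide (10 mM stock) 1 hr 25° C; acetone ppt, urea/DTT reduction, iodoacetamide alkylation, trypsin, streptavidin pull-down.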

Assay [2] deals with T2, SETD1A Histone-lysine N-methyltransferase SETD1A (Homo sapiens, UniProt O15047).
T2 construct: Cells were resuspended in cold PBS on ice and sonicated with a probe sonicator to achieve lysis; endogenous in cells
Kind of assay: Cysteine liganding, probe competition. It is filed as binding. The procedure, abridged: as §1

T2 sequence (O15047 whole entry): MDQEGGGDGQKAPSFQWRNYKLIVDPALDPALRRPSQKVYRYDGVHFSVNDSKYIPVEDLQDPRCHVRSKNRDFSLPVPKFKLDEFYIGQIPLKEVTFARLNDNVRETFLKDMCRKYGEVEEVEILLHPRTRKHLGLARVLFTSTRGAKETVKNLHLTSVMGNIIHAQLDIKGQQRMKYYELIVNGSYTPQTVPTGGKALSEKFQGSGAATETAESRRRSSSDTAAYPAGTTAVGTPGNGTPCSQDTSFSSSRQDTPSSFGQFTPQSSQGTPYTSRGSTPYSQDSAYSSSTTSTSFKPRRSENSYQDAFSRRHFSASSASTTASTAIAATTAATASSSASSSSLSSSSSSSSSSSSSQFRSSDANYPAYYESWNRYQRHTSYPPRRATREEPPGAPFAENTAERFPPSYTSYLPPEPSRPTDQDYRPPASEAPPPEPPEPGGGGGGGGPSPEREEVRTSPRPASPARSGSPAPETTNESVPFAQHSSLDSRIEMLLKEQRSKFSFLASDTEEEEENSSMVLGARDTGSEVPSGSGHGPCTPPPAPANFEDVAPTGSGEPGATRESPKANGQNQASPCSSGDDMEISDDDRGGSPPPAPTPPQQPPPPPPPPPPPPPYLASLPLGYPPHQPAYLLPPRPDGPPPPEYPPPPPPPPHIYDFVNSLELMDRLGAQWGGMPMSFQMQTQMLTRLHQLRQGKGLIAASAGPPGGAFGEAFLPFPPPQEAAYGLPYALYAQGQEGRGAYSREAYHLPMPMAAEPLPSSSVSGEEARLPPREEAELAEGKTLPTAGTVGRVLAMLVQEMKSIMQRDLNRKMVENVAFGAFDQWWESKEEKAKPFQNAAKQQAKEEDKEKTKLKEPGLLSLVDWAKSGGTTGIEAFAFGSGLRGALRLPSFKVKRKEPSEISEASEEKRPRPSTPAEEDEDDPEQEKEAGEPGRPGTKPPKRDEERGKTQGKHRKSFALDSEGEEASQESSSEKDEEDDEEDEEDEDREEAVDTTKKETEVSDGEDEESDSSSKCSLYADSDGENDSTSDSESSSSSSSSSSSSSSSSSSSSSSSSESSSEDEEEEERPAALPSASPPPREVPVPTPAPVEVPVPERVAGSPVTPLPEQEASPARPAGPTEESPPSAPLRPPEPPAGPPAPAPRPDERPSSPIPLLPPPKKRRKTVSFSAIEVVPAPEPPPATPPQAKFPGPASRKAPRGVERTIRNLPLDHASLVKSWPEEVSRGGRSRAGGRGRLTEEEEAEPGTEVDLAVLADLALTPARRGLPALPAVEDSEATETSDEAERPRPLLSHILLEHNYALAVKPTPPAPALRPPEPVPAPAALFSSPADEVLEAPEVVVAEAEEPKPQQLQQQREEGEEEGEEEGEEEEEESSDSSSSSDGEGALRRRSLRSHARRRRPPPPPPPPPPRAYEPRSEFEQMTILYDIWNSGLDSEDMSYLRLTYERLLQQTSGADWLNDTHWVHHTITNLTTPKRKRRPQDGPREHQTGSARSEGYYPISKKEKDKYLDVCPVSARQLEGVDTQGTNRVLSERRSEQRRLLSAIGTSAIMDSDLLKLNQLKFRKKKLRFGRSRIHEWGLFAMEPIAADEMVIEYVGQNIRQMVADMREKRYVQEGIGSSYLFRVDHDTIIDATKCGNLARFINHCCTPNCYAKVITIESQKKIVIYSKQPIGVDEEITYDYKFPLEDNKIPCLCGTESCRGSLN

On to `COc1ccc2c(c1)CCCN2C(=O)CCl` [KB02], for which the Liganded entry in assay [1] (TRIM33 Res# 582, uniprot Q9UPN9) is on record as “YES”; in assay [2] (SETD1A Res# 1648, uniprot O15047) it was “YES”.
For `O=C(CCl)Nc1cc(C(F)(F)F)cc(C(F)(F)F)c1` [KBO3], the “KB03_500 uM_percent_inhibition” value in assay [1] (500 uM, UniProt Q9UPN9) stood at 86%. Besides, the Liganded result in assay [1] (TRIM33 Res# 153, uniprot Q9UPN9) is given as “YES”. Further, in assay [2] (uniprot O15047), the “100 Max” value was determined as 15.12, the 100 ave is on record as −0.4575, the “500 Max” value came out at 40.15 and the 500 ave turned out to be 38.365.
